In patent US7473681B2, “Kahalalide F” (Pharma Mar, S.A., priority 2000, dated 2009):
Read-outs that look alike come from different tables or passages of the source.

Experiments:
[1] = Solubility of KF and recovery after reconstitution and dilution; assay type: physicochemical; conditions: 5/5/90% v/v/v CEW, diluted with 0.9% NaCl down to 0.5 μg/mL
Description: Methods. Solubility and stability of KF were studied as a function of polysorbate 80 (P80; 0.1-0.5% w/v) and citric acid monohydrate (CA; 5-15 mM) concentrations using an experimental design approach. Stabilities of KF lyophilized products containing crystalline (mannitol) or amorphous (sucrose) bulking agents were studied at +5° C. and +30° C. in the dark. Lyophilized products were characterized by infrared (IR) spectroscopy and differential scanning calorimetry. Recovery studies after reconstitution of KP lyophilized product and further dilution in infusion fluid were carried out to select an optimal reconstitution vehicle. Results. […] A combination of 0.1% w/v P80 and 5 mM CA was selected for further investigation. […] The glass transition temperature of the sucrose-based product was determined to be +46° C. The amorphous state of the product was confirmed by IR analysis. […] A stable lyophilized formulation is presented containing 100 μg of kahalalide F, 100 mg sucrose, 2.1 mg CA and 2 mg P80 to be reconstituted with a vehicle composed of 5/5/90% v/v/v CEW, and to be further dilute using normal saline.

[2] = CellTiter96 (MTS) in vitro cytotoxicity assay; conditions: H9 c2 (2-1) cardiac cells
[3] = tested on: skeletal muscle (L8) cells; test: CellTiter96 (MTS) in vitro cytotoxicity assay; assay type: cell-based
[4] = CellTiter96 (MTS) in vitro cytotoxicity assay; assay type: cell-based; conditions: mouse, AML-12 liver cells; read-out: LD50 (the source's name)
[5] = CellTiter96 (MTS) in vitro cytotoxicity assay; assay type: cell-based; conditions: rat, NRX-52E kidney cells; read-out: LD50 (the source's name)
[6] = CellTiter96 (MTS) in vitro cytotoxicity assay; assay type: cell-based; conditions: mouse, FDC-P1 myelogenous stem cells; FDC-Pl myelogenous stem cells; read-out: LD50 (the source's name)
[7] = tested on: astrocytes (glial fibrilary acidic protein positive); test: Fluorescent viability stain with immunocytochemistry; assay type: cell-based; conditions: ~10 μM
Description: (§1) We have also found this drug to be neuxotoxic at high concentrations in our assay system and which correlates well with animal data showing neurotoxicity above the maximum tolerated dose (MTD). Using a fluorescent viability stain (ethidium homodimer and calccin AM, Molecular Probes) coupled with immunocytochemistry, we determined that ˜10 μM Kahalalide is toxic to central nervous system (CNS) neurons (neurofilament positive) but spares astrocytes (glial fibrilary acidic protein positive) as well as sensory (substance P expressing) and motor (choline acetyl transferase positive) neurons in the spinal cord. We conclude that Kahalalide F is a promising drug for the treatment of prostate cancer as its neurotoxicity is relatively mild at or below MTD levels.

[8] = tested on: central nervous system (CNS) neurons (neurofilament positive); test: as above; assay type: cell-based; conditions: ethidium homodimer and calcein AM stain
Description: as §1

[9] = tested on: motor (choline acetyl transferase positive) neurons in the spinal cord; test: as above; assay type: cell-based; conditions: ~10 μM
Description: as §1

[10] = tested on: sensory (substance P expressing) neurons in the spinal cord; test: as above; assay type: cell-based; conditions: ~10 μM
Description: as §1

[11] = Rodent maximum tolerated dose; assay type: in vivo
PC-3 = test: In vitro antiproliferative study; assay type: cell-based; conditions: PC-3 prostate tumor
DU-145 = test: In vitro antiproliferative study; assay type: cell-based; conditions: DU-145 prostate tumor
T-10 = test: In vitro antiproliferative study; assay type: cell-based; conditions: T-10 prostate tumor
DHM = test: In vitro antiproliferative study; assay type: cell-based; conditions: DHM prostate tumor
RB = test: In vitro antiproliferative study; assay type: cell-based; conditions: RB prostate tumor
SK-BR-3 = test: In vitro antiproliferative study; assay type: cell-based; conditions: SK-BR-3 neu+ breast tumor cells
BT-474 = test: In vitro antiproliferative study; assay type: cell-based; conditions: BT-474 neu+ breast tumor cells
BE(2)C = test: In vitro antiproliferative study; assay type: cell-based; conditions: BE(2)C neuroblastoma cell line
[12] = In vitro exposure studies; assay type: cell-based; conditions: exposure of 1 hour as potent as 48 hours, in most cases
[13] = tested on: fresh human tumor specimens; test: Human Tumor Cloning Assay; assay type: cell-based; conditions: 14-day continuous exposure, 31 evaluable specimens
Description: In the present study, fresh human tumor specimens were treated with KF to determine activity, utilizing the Human Tumor Cloning Assay. One hundred and four patient tumor specimens were treated with KF under 14-day continuous exposure at 0.01, 0.1, and 1.0 μM. Specimens were incubated in a 2-layer soft-agar cloning system at 37° C. and were removed on Day 14 for colony count. Colonies formed in the treated plates were compared to the number of colonies formed in the untreated control plates, and the percent colonies surviving at each concentration was calculated. The positive control plates contained the cell poison orthosodium vanadate (200 μg/ml). Among these specimens, approximately 30% were evaluable with appropriate negative and positive controls.

[14] = Phase I study: plasma pharmacokinetics; assay type: in vivo, human
Description: Bioanalysis of KF was performed by LC-MS/MS.

[15] = tested on: patients with advanced or metastatic androgen refractory prostate cancer; test: Phase I study: toxicity and anti-tumor activity; assay type: in vivo, human
[16] = tested on: hepatocellular carcinoma cells; test: Cytotoxicity to carcinoma cells; assay type: cell-based
prostate carcinoma cells = test: Cytotoxicity to carcinoma cells; assay type: cell-based
[17] = glass infusion containers, refrigerated (+2-8° C., in the dark)
Description: Prior to in i.v. administration it is reconstituted with a solution composed of Cremophor EL, ethanol absolute and Water for Injection (CEW, 5/5/90% v/w) with further dilution in 0.9% w/v sodium chloride for infusion.

[18] = tested on: dedifferentiated and mesenchymal chodrosarcomas, CHSAs

For `C/C=C1\NC(=O)[C@H](Cc2ccccc2)NC(=O)[C@@H](C(C)C)NC(=O)[C@@H](C(C)CC)NC(=O)[C@H](NC(=O)C(NC(=O)[C@H](CCCN)NC(=O)[C@H]2CCCN2C(=O)[C@H](NC(=O)[C@@H](NC(=O)[C@@H](NC(=O)[C@H](NC(=O)CCCC(C)C)C(C)C)C(C)O)C(C)C)C(C)C)C(C)CC)C(C)OC(=O)[C@H](C(C)C)NC1=O` (single isomer, unassigned) [Kahalalide F, kahalalide F], which “KF in solution after reconstitution and further dilution” value [1] is on record?
The value was “kept KF in solution”.

And the LD50 [2]?
The LD50 was 5 mM.

What about the LD50 [3] of the same compound?
Its LD50 is 0.6 mM.

And the CC50 [4]?
Its CC50 is 0.17 µM.

What about the CC50 [5] of the same compound?
Its CC50 is 1.6 µM.

And the CC50 [6]?
The CC50 was 14 µM.

What about the toxicity to astrocytes [7] of the same compound?
The toxicity to astrocytes was “spares”.

And the “concentration toxic to CNS neurons” value [8]?
Its value is ~10 µM.

And the “toxicity to motor neurons” value [9]?
Its value is “spares”.

What about the “toxicity to sensory neurons” value [10] of the same compound?
Its value is “spares”.

What about the MTD [11] of the same compound?
Its MTD is 300 μg/kg BW.

And the IC50 (PC-3)?
The IC50 was 0.27 µM.

And the IC50 (DU-145)?
Its IC50 is 0.25 µM.

What about the IC50 (T-10) of the same compound?
The IC50 was 0.73 µM.

And the IC50 (DHM)?
The IC50 was 0.24 µM.

And the IC50 (RB)?
Its IC50 is 0.19 µM.

And the IC50 (SK-BR-3)?
Its IC50 is 2.5 µM.

And the IC50 (BT-474)?
The IC50 was 2 µM.

And the IC50 (BE(2)C)?
Its IC50 is 1 µM.

What about the “schedule dependence of cytotoxicity” value [12] of the same compound?
Its value is “not schedule-dependent”.

And the “specimens with in vitro response (50% survival)” value (shortened to “specimens … (50% survival)”) ([13]; 0.01 μg/M)?
The value was 16%.

And the “specimens … (50% survival)” value ([13]; 0.1 μg/M)?
Its value is 19%.

And the “specimens … (50% survival)” value ([13]; 1.0 μg/M)?
The value was 81%.

What about the maximum plasma concentrations ([14]; 320 μg/m2/day) of the same compound?
Its maximum plasma concentrations is 35 to 50 ng/mL.

What about the “relationship between dose and AUC” value ([14]; i.v. infusion over one hour, 20-320 μg/m2/day, patients) of the same compound?
The value was “linear relationship”.

And the drug related toxicity ([15]; 320 μg/m2/day, rapidly reversible)?
Its drug related toxicity is “CTC grade 3 ASAT”.

What about the tolerability of schedule ([15]; one hour infusion, five consecutive days every three weeks) of the same compound?
The tolerability of schedule was “well tolerated”.

What about the maximum tolerated dose ([15]; up to 320 μg/m2/day, study ongoing) of the same compound?
The maximum tolerated dose was “has not been reached yet”.

What about the cytotoxicity [16] of the same compound?
The cytotoxicity was “cytotoxic”.

And the cytotoxicity (prostate carcinoma cells)?
Its cytotoxicity is “cytotoxic”.

What about the “stability of infusion solutions” value [17] of the same compound?
The value was “at least 5 days”.

And the cytotoxicity ([18]; CHSAs)?
The cytotoxicity was “cytotoxic”.

What about the “exposure time eliciting a cytotoxic effect” value ([18]; cells not specified further in the sentence) of the same compound?
Its value is 10 min.

What about the cytotoxicity (osteosarcomas, OSAs) of the same compound?
The cytotoxicity was “cytotoxic”.
